According to patent publication US9067944B2, “Process for the preparation of anagrelide and analogues thereof” (SHIRE LLC, priority 2010, dated 2015):
Where two headings read alike, the source gives them in different places.

Legend:
[1] = solid form; cited from earlier work
[2] = radiolabeled base, humans; cited from earlier work
[3] = radiolabeled base, monkeys; cited from earlier work
[4] = solubility of the tosylate salt; assay type: physicochemical; conditions: crystalline tosylate salt

Row | solubility [4] | Compound | aqueous solubility [1] | absorption into blood plasma [2] | absorption into blood plasma [3]
1 |  | O=C1CN2Cc3c(ccc(Cl)c3Cl)N=C2N1 [compound III, 6,7-dichloro-1,5-dihydroimidazo[2,1-b]quinazolin 2 (3H)-one] | low | complete absorption | complete absorption
2 | soluble | CC1(C)C(=O)NC2=Nc3ccc(Cl)c(Cl)c3CN21.Cc1ccc(S(=O)(=O)O)cc1 [3,3-dimethylanagrelide tosylate, 3,3-Dimethylanagrelide Tosylate] |  |  | 
